Experiment [1] has as its target T1, Kir3.1/Kir3.2 (Homo sapiens, UniProt P48051+P48549).
T1 sequence (P48549 whole entry): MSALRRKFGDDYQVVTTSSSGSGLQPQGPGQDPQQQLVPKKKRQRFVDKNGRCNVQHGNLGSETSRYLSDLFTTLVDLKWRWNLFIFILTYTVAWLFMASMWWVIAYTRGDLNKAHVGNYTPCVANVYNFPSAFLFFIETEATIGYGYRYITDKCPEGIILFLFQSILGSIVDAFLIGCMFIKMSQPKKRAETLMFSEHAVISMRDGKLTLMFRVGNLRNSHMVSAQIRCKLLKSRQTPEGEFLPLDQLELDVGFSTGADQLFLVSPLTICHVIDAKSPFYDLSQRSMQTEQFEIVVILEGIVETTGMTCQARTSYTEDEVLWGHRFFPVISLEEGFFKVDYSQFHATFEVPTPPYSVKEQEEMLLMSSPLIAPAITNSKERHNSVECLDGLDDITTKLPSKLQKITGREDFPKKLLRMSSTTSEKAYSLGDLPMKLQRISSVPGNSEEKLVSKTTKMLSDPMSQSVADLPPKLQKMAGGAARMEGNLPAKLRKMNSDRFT
T1 sequence (P48051 whole entry): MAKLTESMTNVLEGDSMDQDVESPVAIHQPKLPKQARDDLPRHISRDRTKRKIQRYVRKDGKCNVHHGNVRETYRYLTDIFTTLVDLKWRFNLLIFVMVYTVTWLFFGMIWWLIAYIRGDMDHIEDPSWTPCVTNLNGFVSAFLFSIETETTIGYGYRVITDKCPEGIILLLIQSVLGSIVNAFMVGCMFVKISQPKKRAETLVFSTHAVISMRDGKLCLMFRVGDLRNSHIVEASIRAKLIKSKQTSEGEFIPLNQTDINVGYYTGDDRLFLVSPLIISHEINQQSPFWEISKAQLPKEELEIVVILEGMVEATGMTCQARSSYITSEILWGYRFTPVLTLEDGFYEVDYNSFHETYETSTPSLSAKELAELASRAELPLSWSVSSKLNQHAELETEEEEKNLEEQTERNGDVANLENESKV
The experiment is described as follows: Activation of GIRK1/2 (unknown origin) by thallium flux assay. In kind it is protein-complex assay.

Experiment [2] deals with T2, Kir3.1/Kir3.4 (Homo sapiens) (UniProt P48549+P48544). Put plainly: Activation of GIRK1/4 (unknown origin) relative to control. In kind it is protein-complex assay.
The target of another experiment is T3, Kir3.1/Kir3.4 (Homo sapiens, UniProt P48544+P48549).
T3 sequence (P48549 whole entry): T1 sequence (P48549 whole entry)
T3 sequence (P48544 whole entry): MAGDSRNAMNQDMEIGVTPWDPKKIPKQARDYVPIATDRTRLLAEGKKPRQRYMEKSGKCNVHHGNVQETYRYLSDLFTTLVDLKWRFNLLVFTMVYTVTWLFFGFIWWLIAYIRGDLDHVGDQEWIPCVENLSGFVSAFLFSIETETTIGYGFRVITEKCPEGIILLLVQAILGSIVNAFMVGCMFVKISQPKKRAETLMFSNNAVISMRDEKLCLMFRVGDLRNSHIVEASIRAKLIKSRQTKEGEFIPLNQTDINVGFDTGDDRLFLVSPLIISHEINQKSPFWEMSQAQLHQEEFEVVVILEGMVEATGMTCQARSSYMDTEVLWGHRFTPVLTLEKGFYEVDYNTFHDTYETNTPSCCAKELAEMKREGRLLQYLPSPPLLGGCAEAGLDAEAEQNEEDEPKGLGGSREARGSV
Put plainly: Activation of GIRK1/4 (unknown origin). In kind it is protein-complex assay.

In experiment [3] the target is Kir3.2/Kir3.3 (Homo sapiens) (UniProt P48051+Q92806). The experiment is described as follows: Activation of GIRK2/3 (unknown origin). In kind it is protein-complex assay.
In experiment [4] the target is T4, Kir3.1/Kir3.2 (Homo sapiens) (UniProt P48549+P48051). The experiment is described as follows: Activation of GIRK1/2 (unknown origin) by thallium flux assay relative to control. In kind it is protein-complex assay.
Experiment [5] in a line: Activation of GIRK (unknown origin). On the set-up: species or system Homo sapiens.
The target of experiment [6] is T4, Kir3.1/Kir3.2 (Homo sapiens). The experiment is described as follows: Activation of GIRK1/2 (unknown origin) relative to ML297. In kind it is protein-complex assay.
In experiment [7] the target is T5, G protein-activated inward rectifier potassium channel 2 (Homo sapiens) (UniProt P48051).
T5 sequence (whole entry): T1 sequence (P48051 whole entry)
The experiment is described as follows: Activation of GIRK2 (unknown origin).

Experiment [8] has as its target T2, Kir3.1/Kir3.4 (Homo sapiens). Put plainly: Activation of GIRK1/4 (unknown origin) relative to ML297. In kind it is protein-complex assay.
For experiment [9], the target named is T1, Kir3.1/Kir3.2. The experiment is described as follows: Activation of GIRK1/2 (unknown origin). In kind it is protein-complex assay.
Experiment [10] can be described thus: Inhibition of GIRK (unknown origin). The arrangement: species or system Homo sapiens.

Calls of active or inactive are those of the source. No cut-off for these calls is given here.

In general, EC50 refers to the concentration that produces a half-maximal response. The low end stands for higher potency in that assay, the high end for lower potency in that assay. As to `Cc1cc(NC(=O)Nc2ccccc2)n(-c2ccccc2)n1`, the EC50 was 1400 nM at Kir3.1/Kir3.2 [1] and 690 nM at Kir3.1/Kir3.4. The Efficacy in experiment [2] was determined as 93%; in [4] it was 97%. Moreover, the result in experiment [3] was inactive.

Compound `C[C@@H]1O[C@@H](O[C@H]2[C@H](Oc3cc(O)c4c(c3)O[C@H](c3ccc(O)cc3)CC4=O)O[C@H](CO)[C@@H](O)[C@@H]2O)[C@H](O)[C@H](O)[C@H]1O` [NARINGIN] displayed an EC50 in [5] above 100000 nM.

Consider `Cc1cc(NC(=O)Nc2ccc(F)c(F)c2)n(CC(F)(F)F)n1`, for which the Efficacy is 96% in experiment [6] and 103% in [8]. Besides, the outcome in experiment [7] and in experiment [3] was inactive. In addition, the EC50 came to 1300 nM at Kir3.1/Kir3.4 and 460 nM on Kir3.1/Kir3.2 [9].

On to `Cc1cc(NC(=O)Nc2ccc(F)c(F)c2)n(Cc2ccccc2)n1`, for which the Efficacy in experiment [6] is 87%; in experiment [8], 99%. Also, the outcome in experiment [7] and in [3] was inactive. Besides, the figures for the EC50 on Kir3.1/Kir3.4 and at Kir3.1/Kir3.2 [9] were 110 nM and 70 nM, respectively.

The term IC50 denotes the midpoint of a concentration-inhibition curve. Higher therefore signals a need for much substance. Turning to `CN1CCc2cc(Cl)c(O)cc2[C@@H](c2ccccc2)C1` [SCH-23390], in experiment [10], half-maximal inhibition (IC50) required 4000 nM.

As to `Cc1cc(NC(=O)Nc2ccc(F)c(F)c2)n(-c2ccccc2)n1`, the EC50 came to 160 nM on Kir3.1/Kir3.2 [1] and 1800 nM on Kir3.1/Kir3.4. Further, the figures for the Efficacy in [2] and in experiment [4] were 93% and 194%, respectively. Also, in experiment [3], the result was inactive.

As for `Cc1ccc(NC(=O)Nc2cc(C3CC3)nn2Cc2ccccc2)cc1`, the Efficacy in [6] was 35%; in experiment [8], 46%. The EC50 at Kir3.1/Kir3.4 stood at 920 nM; on Kir3.1/Kir3.2 [9] it was 570 nM.

Consider `O=C(Nc1ccc(F)c(Cl)c1)Nc1cc(C2CC2)nn1Cc1ccccc1`, for which the Efficacy in experiment [6] was 47%; in [8] it was 83%. In addition, the values for the EC50 at Kir3.1/Kir3.4 and on Kir3.1/Kir3.2 [9] were 320 nM and 210 nM, respectively.

On to `Cc1cc(NC(=O)Nc2ccc(F)c(F)c2)n(-c2ccc(F)cc2)n1`, for which the Efficacy came to 78% in experiment [6] and 57% in [8]. The outcome in experiment [7] and in experiment [3] was inactive. Moreover, the concentration for a half-maximal effect (EC50) on Kir3.1/Kir3.4 stood at 540 nM; on Kir3.1/Kir3.2 [9] it was 190 nM.

The values above are taken from ChEMBL document CHEMBL2406941, “Discovery of 'molecular switches' within a GIRK activator scaffold that afford selective GIRK inhibitors” (Bioorg Med Chem Lett, 2013).
